The test system of data set [1] is subject diagnosed with Parkinson's disease. The experiment in a line: Case of a Parkinson's subject given Olivenol Plus capsules (Example 1). Type of data set: in vivo, human. To be noted: orally administered L-dopa for over three months before the polyphenol treatment, one subject. Here is the method:
The subject was given an olive polyphenol composition orally, in the form of two Olivenol Plus® capsules administered three times per day. As each capsule contains 12 mg olive polyphenols, including about 5 mg hydroxytyrosol, the daily dose given to the subject was 72 mg olive polyphenols, including 30 mg hydroxytyrosol.

In a further data set the test system is endothelial cell. The experiment in a line: Endothelial cell based assay (pro-/anti-oxidant effect). The text has this:
Without wishing to be bound by theory, it may be postulated that the removal of hydroxytyrosol from its original matrix and natural environment can result in adverse effects, and that at least some of the naturally occurring associated polyphenols are necessary to include in a therapeutic hydroxytyrosol formulation.

The test system of another data set is Bax. Description: Western blot on the mesencephalic region: Bax. The arrangement: species or system male adult CD1 mice. The procedure: (§1) In vitro testing was then carried out on the mesencephalic region, with respect to iNOS production, IkB-α, NF-κB, Bax, and Bcl2. Western blot analyses and corresponding bar graphs are presented in FIG. 5 (iNOS production, optical density normalized to β-actin), FIG. 6 (IkB-α, also normalized to β-actin), FIG. 7 (NF-κB, optical density normalized to lamin A/C), FIG. 8 (Bax, normalized to β-actin), and FIG. 9 (Bcl2, normalized to β-actin). In each case, the effect of hydroxytyrosol is marked.
A general note: Immunoblotting shows a protein as a band on a membrane.

The next data set relates to NF-κB. The experiment in a line: Western blot on the mesencephalic region: NF-κB. Further details: species or system male adult CD1 mice. Here is the method:
as §1

Data set [2] deals with cells from the mesencephalic region. The experiment in a line: Histology of cells from the mesencephalic region, rotenone mouse model. The conditions noted are these: hydroxytyrosol-treated relative to rotenone-only ("vehicle") group. Format: in vivo, male adult CD1 mice.
The next data set has as its system IkB-α. Description: Western blot on the mesencephalic region: IkB-α. Further details: species or system male adult CD1 mice. The procedure: as §1
The next data set relates to iNOS production. The experiment in a line: Western blot on the mesencephalic region: iNOS. Further details: species or system male adult CD1 mice. Here is the method: as §1
The conditions of data set [3]: even at high concentrations; Auñon-Calles et al. (2013); cited from earlier work.
The test system of a further data set is Bcl2. Description: Western blot on the mesencephalic region: Bcl2. The arrangement: species or system male adult CD1 mice. Here is the method: as §1
For data set [4], the system named is rotenone-induced PD state. Description: Pole test (body coordination and balance) in rotenone mouse model of PD. Type of data set: in vivo, male adult CD1 mice. The conditions noted are these: hydroxytyrosol 10 mg/kg/day plus rotenone 5 mg/kg/day i.p., 28 days, relative to rotenone only.

The structures appear in SMILES notation.

Consider two compounds from US20170367995A1, “TREATMENT OF EARLY STAGE PARKINSON'S DISEASE WITH A HYDROXYTYROSOL-CONTAINING POLYPHENOL FORMULATION” (Allevium Therapeutics, Inc., priority 2016, published 2017).

Take `N[C@@H](Cc1ccc(O)c(O)c1)C(=O)O` [L-dopa]: the improvement after treatment entry in [1] was “no noticeable improvement”.
`OCCc1ccc(O)c(O)c1` [hydroxytyrosol, 4-(hydroxyethyl)-1,2-benzene diol]: the “pro-oxidant / anti-oxidant effect” value in the data set on endothelial cell is reported as “pro-oxidant effect”. The “Bax, normalized to β-actin, FIG. 8” value in the data set on Bax is “marked”. Further, in the data set with NF-κB, the “NF-κB, optical density normalized to lamin A/C, FIG. 7” value is recorded as “marked”. Besides, the “histologic injury score, FIG. 4” value in data set [2] is given as “significantly reduces”. In addition, in the data set on IkB-α, the “IkB-α, normalized to β-actin, FIG. 6” value is reported as “marked”. Further, the “iNOS production, optical density normalized to β-actin, FIG. 5” value in the data set on iNOS production was “marked”. The toxicity result in [3] is given as “no toxicity has been detected”. Also, in the data set with Bcl2, the “Bcl2, normalized to β-actin, FIG. 9” value is recorded as “marked”. Moreover, in data set [4], the “pole test time to turn (orientation time), FIG. 1B” value is given as “significantly lowers”; the “pole test total time (orientation and complete descent), FIG. 1A” value is “significantly lowers”.
